Reference: PubChem BioAssay (NCI)
Several values for one entry are separate records, joined by “and”; a condition that tells them apart may be missing. Identical values can stand only once.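 Dose response: 5 concentrations. Exposure: 48 h. Format: 96-well plates. Endpoint: linear interpolation; highest concentration if not reached. Here, GI50 denotes the concentration required for 50% inhibition of growth. TGI: concentration producing complete growth inhibition.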

What was measured:
Experiment in all cases: inhibition of tumour cell growth, NCI panel, 48 h
UACC-257 melanoma = system: UACC-257 melanoma
OVCAR-4 ovarian = system: OVCAR-4 ovarian
MCF7 breast = system: MCF7 breast
NCI/ADR-RES ovarian = system: NCI/ADR-RES ovarian
MALME-3M melanoma = system: MALME-3M melanoma
SF-539 CNS = system: SF-539 CNS
SK-MEL-2 melanoma = system: SK-MEL-2 melanoma
SNB-75 CNS = system: SNB-75 CNS
IGROV1 ovarian = system: IGROV1 ovarian
HOP-92 NSCLC = system: HOP-92 NSCLC

| SMILES | TGI (UACC-257 melanoma) [µM] | TGI (OVCAR-4 ovarian) [µM] | TGI (MCF7 breast) [µM] | TGI (NCI/ADR-RES ovarian) | TGI (MALME-3M melanoma) [µM] | TGI (SF-539 CNS) [µM] | TGI (SK-MEL-2 melanoma) | TGI (SNB-75 CNS) | TGI (IGROV1 ovarian) [µM] | TGI (HOP-92 NSCLC) | GI50 (UACC-257 melanoma) [µM] | GI50 (HOP-92 NSCLC) [µM] | GI50 (OVCAR-4 ovarian) [µM] | GI50 (MCF7 breast) [µM] | GI50 (NCI/ADR-RES ovarian) | GI50 (MALME-3M melanoma) [µM] | GI50 (SF-539 CNS) [µM] | GI50 (SK-MEL-2 melanoma) [µM] | GI50 (SNB-75 CNS) [µM] | GI50 (IGROV1 ovarian) [µM] |
| --- | --- | --- | --- | --- | --- | --- | --- | --- | --- | --- | --- | --- | --- | --- | --- | --- | --- | --- | --- | --- |
| COC(=O)NN(C(=O)OC)c1c(-c2ccccc2)nc(SC)n1N | > 100 | > 100 | > 100 | > 100 µM | > 100 | > 100 | > 100 µM | > 100 µM | > 100 |  |  |  |  |  |  |  |  |  |  |  |
| CCOC1CC(=O)c2c(Br)sc(Br)c21 (configuration not stated) | 32.2 |  | 40.5 | > 100 µM | 40.8 | 69.5 | 37.2 µM | 35.7 µM | 31 | 35.3 µM |  |  |  |  |  |  |  |  |  |  |
| O=[N+]([O-])C(=C(N1CCCCC1)N1CCCCC1)/C(Cl)=C(\Cl)Br | 61.6 | 66.5 | 88.9 | 91.8 µM | 64.9 | 69.2 |  | 34.4 µM | 90.8 | 53.4 µM |  |  |  |  |  |  |  |  |  |  |
| O=C(NC(Cc1c[nH]c2ccccc12)C(=O)O)/C(=C/c1ccccc1O)NC(=O)c1ccccc1 (configuration not stated) | > 100 | > 100 | 24.9 | 39.7 µM | > 100 | 40.6 |  | 38.5 µM | > 100 | 75.5 µM |  |  |  |  |  |  |  |  |  |  |
| Cc1cn2c(/C=C3/C(=O)Nc4cccc(Cl)c43)c(Cl)nc2s1 | > 100 | > 100 | > 100 | > 100 µM | > 100 |  |  | 43.6 µM | > 100 | > 100 µM |  |  |  |  |  |  |  |  |  |  |
| COc1ccc(CC(CO)NC(=O)OCc2ccccc2)cc1Oc1ccc(CC(CO)NC(=O)OCc2ccccc2)cc1 (configuration not stated) | 61.4 | > 100 |  |  | 31.4 |  | 32.4 µM | 11.7 µM | 29.3 | 46.1 µM |  |  |  |  |  |  |  |  |  |  |
| O=C1CCC(=Nc2ccc(Cl)cc2)N1C(=O)COc1ccc(OCC(=O)N2C(=O)CSC2=Nc2ccc(Cl)cc2)cc1 | > 100 | > 100 | > 100 | > 100 µM | > 100 |  | > 100 µM | 91.9 µM | > 100 | > 100 µM |  |  |  |  |  |  |  |  |  |  |
| Nn1c(CCCCCCCCc2nnc(COc3c(O)ccc4ccccc34)n2N)nnc1COc1c(O)ccc2ccccc12 | > 100 | > 100 | > 100 | > 100 µM | > 100 |  | > 100 µM | > 100 µM | > 100 | > 100 µM |  |  |  |  |  |  |  |  |  |  |
| CCCCOC(C)(C)/C=C/C(O)[C@](C)(O)[C@H]1[C@H](O)C[C@@]2(C)[C@@H]3CCc4c(cc(OC5OC(CO)C(O)C(O)C5O)c(O)c4C)C3(C)C(=O)C[C@]12C (some centres not stated) | > 100 | > 100 | > 100 | > 100 µM | > 100 | > 100 | > 100 µM | > 100 µM | > 100 | > 100 µM |  |  |  |  |  |  |  |  |  |  |
| Cc1cc(C)c2c(=O)n(CN3CC4Nc5ccccc5C4C3)sc2n1 (configuration not stated) | 32.2 | 42.2 | > 100 | > 100 µM | 27.8 | 39.8 | 54.2 µM |  | > 100 | > 100 µM |  |  |  |  |  |  |  |  |  |  |
| C=C1C(O)C2(O)OCC34C(CC5C(C)=CC(=O)C(O)C5(C)C23)OC(=O)C(OC(=O)C/C=C(\C)CCCCC)C14 (configuration not stated) |  |  |  | 4.22 µM and 6.42 µM and 11.5 µM | < 0.001 |  | 0.00985 µM and 0.042 µM | 0.00366 µM and 0.0278 µM |  | 0.00664 µM and 0.0195 µM and 0.0234 µM | < 0.001 | 0.00157 | < 0.001 | < 0.001 | 0.387 µM and 1.46 µM | < 0.001 | < 0.001 | 0.00113 | < 0.001 | < 0.001 |
| OC[C@@H](O)[C@H]1NC[C@@H](O)[C@H]1O | > 100 | > 100 | > 100 |  | > 100 | > 100 |  | > 100 µM | > 100 | > 100 µM |  |  |  |  |  |  |  |  |  |  |
| CC(=O)N/N=C1/NN(C(C)=O)C2(S1)C(=O)Nc1ccc(Br)cc12 (configuration not stated) | > 100 | > 100 | > 100 | > 100 µM | > 100 | > 100 | > 100 µM | > 100 µM | > 100 | > 100 µM |  |  |  |  |  |  |  |  |  |  |
| Cc1ccc(S(=O)(=O)Oc2cc(N)c3c(n2)CCC3)cc1 | > 100 | > 100 | > 100 | > 100 µM |  | > 100 | > 100 µM | > 100 µM | > 100 | > 100 µM |  |  |  |  |  |  |  |  |  |  |
| COP(=O)(O)/C=C/C(NC(=O)C(Cl)(Cl)Cl)c1ccccc1 (configuration not stated) | > 100 | > 100 | > 100 | > 100 µM | > 100 |  | > 100 µM | > 100 µM | > 100 | > 100 µM |  |  |  |  |  |  |  |  |  |  |
| CCC1=CCC23C(=O)C=CC(=O)C2(C1)C(=O)c1cccc(OC)c1C3=O (configuration not stated) | 30.1 | 26.1 | 32.8 | 59.5 µM | 30 | 32.9 | > 100 µM | 33.5 µM | 26.9 | 29 µM |  |  |  |  |  |  |  |  |  |  |
| N#Cc1nc(-c2cc([N+](=O)[O-])cc([N+](=O)[O-])c2)oc1N | > 10 | > 10 | > 10 | > 10 µM | > 10 | > 10 |  | > 10 µM | > 10 | > 10 µM |  |  |  |  |  |  |  |  |  |  |
| Cc1cc2c(C)cc(=O)[nH]c2cc1N | > 100 | > 100 | > 100 | > 100 µM |  | > 100 |  | > 100 µM | > 100 | > 100 µM |  |  |  |  |  |  |  |  |  |  |
| O=C1c2ccccc2CN1c1ccc(O)cc1 | > 100 | > 100 | > 100 | > 100 µM | > 100 | > 100 | > 100 µM |  | > 100 | > 100 µM |  |  |  |  |  |  |  |  |  |  |
| C=C(Cl)/C(=C\Cl)CCC(Br)C(C)C (configuration not stated) | > 100 | 95.5 | > 100 | > 100 µM |  | > 100 | > 100 µM | > 100 µM | > 100 | > 100 µM |  |  |  |  |  |  |  |  |  |  |
| CN(C)c1nc(=NCc2ccncc2)ss1 | > 61.2 | 39.2 | > 100 | > 100 µM | > 31.6 | > 67 |  | 34.7 µM | > 100 | > 100 µM |  |  |  |  |  |  |  |  |  |  |
| NC(CSCc1ccccc1)C(=O)O (configuration not stated) | > 100 | > 100 | > 100 | > 100 µM | > 100 |  | > 100 µM | > 100 µM | > 100 | > 100 µM |  |  |  |  |  |  |  |  |  |  |
